The source of these data is patent US20080306076A1, “MODULATION OF CHEMOSENSORY RECEPTORS AND LIGANDS ASSOCIATED THEREWITH” (SENOMYX, INC., priority 2007, published 2008).

The target of one test is T1, hT1R1 H71A (Homo sapiens, UniProt Q7RTX1, H71A).
T1 construct: expressed in transfected cells; host or cells: HEK293, transient transfection
T1 sequence (Q7RTX1 21-841 H71A): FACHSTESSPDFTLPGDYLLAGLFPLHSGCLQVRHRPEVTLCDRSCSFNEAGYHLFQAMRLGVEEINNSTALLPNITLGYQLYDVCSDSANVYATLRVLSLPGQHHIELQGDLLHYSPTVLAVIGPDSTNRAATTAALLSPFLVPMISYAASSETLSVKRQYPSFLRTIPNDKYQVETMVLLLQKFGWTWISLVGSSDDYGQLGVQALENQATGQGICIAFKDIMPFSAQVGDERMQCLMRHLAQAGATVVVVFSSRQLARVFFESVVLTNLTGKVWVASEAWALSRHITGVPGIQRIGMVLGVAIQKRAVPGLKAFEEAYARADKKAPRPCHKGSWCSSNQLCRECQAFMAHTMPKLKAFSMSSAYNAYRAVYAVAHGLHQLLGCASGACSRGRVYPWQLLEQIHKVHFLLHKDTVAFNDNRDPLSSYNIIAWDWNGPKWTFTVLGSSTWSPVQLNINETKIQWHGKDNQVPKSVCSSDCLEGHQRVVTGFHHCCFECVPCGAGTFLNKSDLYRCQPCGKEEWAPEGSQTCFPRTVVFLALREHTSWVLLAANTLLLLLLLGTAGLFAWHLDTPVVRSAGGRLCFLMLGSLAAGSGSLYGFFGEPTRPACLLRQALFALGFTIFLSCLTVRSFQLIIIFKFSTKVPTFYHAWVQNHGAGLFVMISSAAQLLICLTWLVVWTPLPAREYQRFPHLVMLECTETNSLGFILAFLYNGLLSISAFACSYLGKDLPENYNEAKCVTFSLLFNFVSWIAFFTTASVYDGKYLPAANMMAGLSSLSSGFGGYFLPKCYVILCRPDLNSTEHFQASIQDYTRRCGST
T1 sequence (Q923K1 21-858 partner): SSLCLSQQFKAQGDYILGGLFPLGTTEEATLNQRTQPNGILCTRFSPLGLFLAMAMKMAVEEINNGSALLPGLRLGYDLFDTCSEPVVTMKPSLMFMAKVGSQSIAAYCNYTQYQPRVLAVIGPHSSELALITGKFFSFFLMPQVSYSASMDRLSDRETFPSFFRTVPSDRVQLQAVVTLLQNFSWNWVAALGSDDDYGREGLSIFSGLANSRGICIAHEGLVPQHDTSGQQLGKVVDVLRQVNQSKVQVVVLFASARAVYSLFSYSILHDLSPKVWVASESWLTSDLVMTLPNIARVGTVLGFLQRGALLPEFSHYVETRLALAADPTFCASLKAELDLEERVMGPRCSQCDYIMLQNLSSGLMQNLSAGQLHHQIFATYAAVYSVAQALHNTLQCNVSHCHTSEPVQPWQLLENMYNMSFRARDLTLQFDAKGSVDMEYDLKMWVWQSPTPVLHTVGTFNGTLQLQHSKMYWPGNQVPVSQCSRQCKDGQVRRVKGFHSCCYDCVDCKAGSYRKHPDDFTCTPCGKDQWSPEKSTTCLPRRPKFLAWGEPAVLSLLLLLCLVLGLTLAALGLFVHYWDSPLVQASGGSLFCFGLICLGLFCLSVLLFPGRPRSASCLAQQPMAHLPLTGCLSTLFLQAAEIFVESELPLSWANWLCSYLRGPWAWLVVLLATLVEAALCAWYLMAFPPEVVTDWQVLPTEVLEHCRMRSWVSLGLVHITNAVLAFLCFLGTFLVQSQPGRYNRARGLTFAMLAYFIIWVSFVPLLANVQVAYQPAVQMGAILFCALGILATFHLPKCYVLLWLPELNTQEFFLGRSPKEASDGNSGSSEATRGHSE
Kind of test: Mutagenesis study, hT1R1 mutant H71A. The conditions noted are these: H71 mutation. Format: cell-based. From the text:
(§1) In order to further define the interaction sites of umami stimuli, we performed site-directed mutagenesis on human T1R1 VFT. The mutagenesis was done using the routine PCR-based method. […] were transiently transfected into HEK293 cell together with the rat T1R3 wild type cDNA, and the transfected cells were characterized using an automated FLIPR machine or a calcium imaging system as described in our previous patent applications.

The target in the next test is T2, hT1R1 S172A (Homo sapiens, UniProt Q7RTX1, S172A).
T2 construct: expressed in transfected cells; host or cells: HEK293, transient transfection
T2 sequence (Q7RTX1 21-841 S172A): T1 sequence (Q7RTX1 21-841 H71A) with A51H, S152A
T2 sequence (Q923K1 21-858 partner): T1 sequence (Q923K1 21-858 partner)
The experiment in a line: Mutagenesis study, hT1R1 mutant S172A. Type of test: cell-based. The conditions noted are these: S172 mutant, FIG. 11.
Excerpt: as §1

Substitutions are numbered along the chain they refer to.

For the compound `Nc1nc2c(ncn2[C@@H]2O[C@H](COP(=O)(O)O)[C@@H](O)[C@H]2O)c(=O)[nH]1` [GMP, guanosine-5′-monophosphate], at hT1R1 H71A, the “enhancement activity of GMP” value was “similarly affected”.

`N[C@@H](CCC(=O)O)C(=O)O` [L-Glu, L-glutamate]: the “activity against L-Glu” value on hT1R1 S172A is listed as “significant reduced activity”.
